# Source: patent US9416115B2, “Fused heterocyclic compounds as ion channel modulators” (Gilead Sciences, Inc., priority 2013, dated 2016)
# Columns and labels:
# hNav1.3 (SCN3A) = target: T1, hNav1.3 (SCN3A) (Homo sapiens, UniProt Q9NY46); assay: Voltage-dependent inhibition of the Nav1.3 sodium channel; assay type: cell-based; conditions: voltage-dependent block of peak current, read-out: Nav 1.3-VDB 1 uM
# T1 construct: expressed in transfected cells
# Method: HEK-293 cells stably expressing wild-type (WT) hNav1.3 (SCN3A NCBI # NP 001075, SCN1B NCBI # NM 001037.4, SCN2B NCBI # NM 004588.2) were used to record INa. Cells are maintained with standard tissue culture procedures and stable channel expression is maintained with 800 ug/mL G418 and 3 ug/mL Puromycin in the culture medium. Unless otherwise noted, all reagents are purchased from Sigma-Aldrich (St Louis, Mo., U.S.A.).
# Assays measuring Voltage-Dependent Block (VDB) of Nav1.3 are performed on an automated electrophysiology platform, QPatch 16X or QPatch HT (Sophion Bioscience, Copenhagen, Denmark), using the whole cell patch clamp technique to measure currents through the cell membrane. Series resistance compensation is set to 100% and series resistance and whole-cell compensation are performed automatically. Currents stored in the Sophion Bioscience Oracle database (Sophion Bioscience, Copenhagen, Denmark). Analysis is performed using QPatch Assay software and data are compiled in Excel 2010 (Microsoft, Seattle, Wash., U.S.A.).
# The internal (pipette) solution consists of (in mM) 105 CsF, 10 NaF, 20 CsCl, 2 EGTA, 10 HEPES, 10 Dextrose with a pH of 7.35 and osmolarity of 300 mOsmol/kg. The external (bath) solution contains in (mM): 80 NaCl, 60 Choline-Cl, 4 KCl, 1.8 CaCl2, 1 MgCl2, 10 dextrose, 10 HEPES, with a pH of 7.35 and osmolarity of 310 mOsmol/kg. Experiments are carried out at 23-25° C.
# Compound stocks are routinely made by the Gilead Sample Bank in vials to 10 mM in dimethyl sulfoxide (DMSO). In some cases, when compounds are not soluble in DMSO, they are made in 100% ethanol. Stocks are sonicated as necessary. Compounds are diluted in extracellular solution using a MicroLab Nimbus (Hamilton Robotics, Reno, Nev.) to 1 μM in glass vials and transferred to glass well plates before robotic addition to the cells.
# Cells are allowed to stabilize for 10 min after establishment of the whole-cell configuration before current is measured. The test compound is applied 3 times at 120 second intervals to allow for equilibration. Currents were leak subtracted using a P/4 procedure, low-pass Bessel filtered at 5 kHz and digitized at 25 kHz. Results are presented as mean percentage inhibition.
# Voltage-dependent block of Nav1.3 peak current was measured during a voltage step to 0 mV (20 ms) following a voltage step pre-conditioning steps (−55 mV for 10 sec followed by −120 mV for 10 ms). The holding potential was −120 mV and this voltage protocol induces half maximal inactivation of Nav1.3. The voltage protocol for VDB was performed every 45 seconds in the absence and presence of compound and percentage inhibition was calculated with respect to the compound free condition.
# [1] = Plasma concentration in the rabbit ischemia study; assay type: in vivo, New Zealand rabbits; conditions: iv infusion targeted to 1 uM plasma
# Method: (§1) Rabbits were anesthetized with ketamine (35 mg/kg) and xylazine (5 mg/kg) intramuscular injection (im). A tracheotomy was performed and the trachea was intubated with an endotracheal tube. The animal was ventilated with room air supplemented with oxygen using a pressure control animal ventilator (Kent Scientific Corp., Torrington, Conn.) at a respiratory rate of 40 strokes/min and peak inspiration pressure of 10 mmH2O, which was adjusted to keep blood gases and pH within the physiological range (iSTAT clinic analyzer, Heska Corp.; Waukesha, Wis.). The left femoral artery was cannulated for the measurement of blood pressure (BP). Blood samples were also withdrawn from femoral artery. The right external jugular vein was cannulated for drug/vehicle administration. Needle electrodes were inserted subcutaneously into the limbs for recording of the surface electrocardiogram (ECG).
# (§2) Reference electrodes were placed in the open incision of the neck. The body temperature of the animal was monitored via a rectal thermometer and maintained at 37-40° C. by adjusting the surface temperature of the surgical table. Regional ischemia (15 min) was induced by ligating the LAD followed by 15 min of reperfusion caused by releasing the ligation. The heart was excised at the end of the experiment and the LAD was re-ligated. The ischemic area was visualized by perfusing the heart with 1% Evans blue in saline and calculated as a percentage of total ventricular weight. Rabbits with ischemic area less than 10% or larger than 25% were excluded from the analysis. Animals were randomly assigned to vehicle and test compound groups. Test compounds were dissolved in 15% NMP, 10% Solutol and 75% de-ionized water (dH2O). Test compounds were given as an iv infusion at a rate targeted to reach plasma concentrations of 1 μM. After 30 min of compound administration the heart was subjected to 15 min of ischemia followed by 15 min of reperfusion.
# [2] = tested on: Ischemia-Induced ST Segment Elevation in Anesthetized Rabbits; assay: Ischemia-induced ST segment elevation in anesthetized rabbits; assay type: in vivo, New Zealand rabbits; conditions: iv infusion; 15 min LAD ischemia after 30 min of compound administration
# Method: This study was undertaken to determine the anti-ischemic effects of compounds of the present disclosure in an in vivo rabbit model.
# Female New Zealand rabbits (3.0-4.0 kg) were purchased from Western Oregon Rabbitry. Animals were housed on a 12-h light and dark cycle and received standard laboratory chow and water. All experiments were performed in accordance with the Guide for the Care and Use of Laboratory Animals published by The National Research Council and with the experimental protocol approved by the Institutional Animal Care Committee of Gilead Sciences, Inc.
# as §1
# The heart was exposed via an incision in the 4th intercostal space (4th and/or 5th ribs were cut for a clear surgical vision). The chest was opened and a pericardial cradle was formed using 4 retractors. A coronary artery occluder, comprised of a snare made of 5 cm PE-10 tubing with a 6-0 Prolene polypropylene suture in it, was placed loosely around the left anterior descending artery (LAD) at its origin. Two unipolar electrodes, made with teflon coated silver wire attached to a small patch of filter paper, were attached on the surface of the ischemic and normal regions of the left ventricle to record epicardial electrocardiogram.
# as §2
# T1 sequence (Q9NY46 1-1951 isoform Q9NY46-2): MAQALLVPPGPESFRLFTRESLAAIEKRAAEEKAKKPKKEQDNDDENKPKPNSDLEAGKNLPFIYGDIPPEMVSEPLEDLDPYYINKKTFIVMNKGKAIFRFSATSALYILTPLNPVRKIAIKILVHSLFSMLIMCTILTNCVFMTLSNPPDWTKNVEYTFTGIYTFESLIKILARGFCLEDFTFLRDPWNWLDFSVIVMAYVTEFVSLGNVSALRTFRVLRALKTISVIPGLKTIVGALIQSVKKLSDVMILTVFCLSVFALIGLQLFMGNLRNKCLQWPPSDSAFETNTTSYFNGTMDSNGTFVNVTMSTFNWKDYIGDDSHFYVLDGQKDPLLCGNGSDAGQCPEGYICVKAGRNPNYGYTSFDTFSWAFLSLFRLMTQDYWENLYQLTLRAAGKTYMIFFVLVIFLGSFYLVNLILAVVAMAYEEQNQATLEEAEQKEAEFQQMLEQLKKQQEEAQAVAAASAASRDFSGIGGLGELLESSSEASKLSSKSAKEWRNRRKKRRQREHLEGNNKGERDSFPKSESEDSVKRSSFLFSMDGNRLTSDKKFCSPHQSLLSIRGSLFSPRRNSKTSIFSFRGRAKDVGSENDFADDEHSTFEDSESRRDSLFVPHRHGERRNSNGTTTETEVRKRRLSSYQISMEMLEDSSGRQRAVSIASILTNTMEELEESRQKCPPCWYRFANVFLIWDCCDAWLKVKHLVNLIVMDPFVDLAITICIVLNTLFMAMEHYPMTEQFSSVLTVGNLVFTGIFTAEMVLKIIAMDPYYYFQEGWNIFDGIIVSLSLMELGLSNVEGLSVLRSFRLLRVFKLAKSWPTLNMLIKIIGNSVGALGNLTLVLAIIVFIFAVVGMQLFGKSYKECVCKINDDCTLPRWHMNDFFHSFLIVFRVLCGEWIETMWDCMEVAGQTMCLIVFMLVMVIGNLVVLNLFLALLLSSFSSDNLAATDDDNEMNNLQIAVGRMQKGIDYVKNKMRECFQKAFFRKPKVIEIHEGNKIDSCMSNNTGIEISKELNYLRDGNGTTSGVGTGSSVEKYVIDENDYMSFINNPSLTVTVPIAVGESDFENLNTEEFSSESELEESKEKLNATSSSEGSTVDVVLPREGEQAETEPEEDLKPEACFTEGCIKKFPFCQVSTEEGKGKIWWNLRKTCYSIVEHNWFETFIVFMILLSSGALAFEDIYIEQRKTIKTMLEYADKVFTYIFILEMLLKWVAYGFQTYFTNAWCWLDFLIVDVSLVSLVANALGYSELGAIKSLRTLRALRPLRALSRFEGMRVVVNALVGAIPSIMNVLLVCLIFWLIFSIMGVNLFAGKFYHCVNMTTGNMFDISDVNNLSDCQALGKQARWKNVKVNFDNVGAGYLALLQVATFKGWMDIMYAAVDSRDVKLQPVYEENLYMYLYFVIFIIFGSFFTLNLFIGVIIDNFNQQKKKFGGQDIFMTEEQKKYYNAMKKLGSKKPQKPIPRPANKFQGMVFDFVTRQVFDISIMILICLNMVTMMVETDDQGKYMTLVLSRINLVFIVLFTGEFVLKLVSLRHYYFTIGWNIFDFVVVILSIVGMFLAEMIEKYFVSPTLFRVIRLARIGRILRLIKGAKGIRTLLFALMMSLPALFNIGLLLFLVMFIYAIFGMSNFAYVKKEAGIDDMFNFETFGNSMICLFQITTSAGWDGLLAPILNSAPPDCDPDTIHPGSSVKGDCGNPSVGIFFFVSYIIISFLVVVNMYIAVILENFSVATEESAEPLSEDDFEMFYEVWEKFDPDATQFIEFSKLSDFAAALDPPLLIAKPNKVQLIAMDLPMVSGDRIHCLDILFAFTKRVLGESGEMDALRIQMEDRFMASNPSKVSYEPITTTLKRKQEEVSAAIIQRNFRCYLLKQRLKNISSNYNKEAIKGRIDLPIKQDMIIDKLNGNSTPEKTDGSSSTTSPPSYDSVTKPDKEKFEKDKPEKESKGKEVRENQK
# T1 sequence (Q07699 19-218 partner): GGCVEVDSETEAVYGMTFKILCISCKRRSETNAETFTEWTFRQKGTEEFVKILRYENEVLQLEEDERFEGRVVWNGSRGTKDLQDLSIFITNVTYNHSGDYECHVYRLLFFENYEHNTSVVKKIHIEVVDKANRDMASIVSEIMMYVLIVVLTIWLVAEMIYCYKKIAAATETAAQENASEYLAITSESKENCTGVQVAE
# T1 sequence (O60939 30-215 partner): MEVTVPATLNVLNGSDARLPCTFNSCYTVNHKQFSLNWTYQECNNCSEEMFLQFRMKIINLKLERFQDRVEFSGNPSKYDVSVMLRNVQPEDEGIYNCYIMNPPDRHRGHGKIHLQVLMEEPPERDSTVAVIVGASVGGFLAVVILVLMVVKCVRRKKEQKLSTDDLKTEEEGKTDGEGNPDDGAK
SMILES,inhibition at 1 µM (hNav1.3 (SCN3A)),Plasma concentration [1],Rabbit ST Segment (Percent reduction) [2]
"FC(F)(F)Oc1ccc(-c2ccc3onc(OCc4cn5ccccc5n4)c3c2)cc1 [Example 51, 3-(imidazo[1,2-a]pyridin-2-ylmethoxy)-5-(4-(trifluoromethoxy)phenyl)benzo[d]isoxazole]",26.6%,,
"COc1cc(-c2ccc(C(F)(F)F)cc2F)cc2c(OCc3ncccn3)noc12 [Example 24, 5-(2-fluoro-4-(trifluoromethyl)phenyl)-7-methoxy-3-(pyrimidin-2-ylmethoxy)benzo[d]isoxazole]",< 5%,,
"FC1(F)Oc2ccc(-c3ccc4onc(OCc5ncccn5)c4c3)cc2O1 [Example 30, 5-(2,2-difluorobenzo[d][1,3]dioxol-5-yl)-3-(pyrimidin-2-ylmethoxy)benzo[d]isoxazole]",21.5%,,
"Cc1cc(OC(F)(F)F)ccc1-c1cc2c(OCc3ncccn3)noc2cc1C [Example 29, 6-methyl-5-(2-methyl-4-(trifluoromethoxy)phenyl)-3-(pyrimidin-2-ylmethoxy)benzo[d]isoxazole]",39.5%,,
"FC(F)(F)COc1ccc(-c2ccc3onc(OCc4ncccn4)c3c2)cn1 [Example 21, 3-(pyrimidin-2-ylmethoxy)-5-(6-(2,2,2-trifluoroethoxy)pyridin-3-yl)benzo[d]isoxazole]",11.2%,0.4 µM,66 Percent reduction
"COc1cc(-c2ccc(OC(F)(F)F)cc2C)cc2c(OCc3ncccn3)noc12 [Example 25, 7-methoxy-5-(2-methyl-4-(trifluoromethoxy)phenyl)-3-(pyrimidin-2-ylmethoxy)benzo[d]isoxazole]",12.3%,,
"O=C1CC[C@H](COc2noc3ccc(-c4ccc(OC(F)(F)F)cc4)cc23)N1 [Example 61, (R)-5-(((5-(4-(trifluoromethoxy)phenyl)benzo[d]isoxazol-3-yl)oxy)methyl)pyrrolidin-2-one]",8.6%,,
